Measurements: ChEMBL document CHEMBL4342402, “An insight into medicinal chemistry of anticancer quinoxalines” (Bioorg Med Chem, 2019)
Values belong to the molecule of their own block, whether it stands above or below them.

Experiments:
[1] = Inhibition of phosphoinositide 3-Kinase (unknown origin); set-up: species or system Homo sapiens
[2] = Inhibition of PDGFR in mouse NIH/3T3 cells assessed as reduction in tyrosine phosphorylation incubated for 2 hrs by SDS-PAGE based immunoblot assay; type: cell-based; conditions: NIH3T3, 2 h
[3] = target: Mast/stem cell growth factor receptor Kit (Homo sapiens, UniProt P10721); assay: Inhibition of c-KIT in human M-07e cells assessed as reduction in […] incubated for 2 hrs followed by KIT ligand stimulation by immunoblotting analysis; type: cell-based
[4] = target: T1, Receptor-type tyrosine-protein kinase FLT3 (Homo sapiens, UniProt P36888); assay: Inhibition of human FLT3 expressed in mouse BAF3 cells assessed as reduction in […] incubated for 2 hrs followed by FLT3 ligand stimulation by immunoblot analysis; type: cell-based
T1 sequence (P36888 whole entry): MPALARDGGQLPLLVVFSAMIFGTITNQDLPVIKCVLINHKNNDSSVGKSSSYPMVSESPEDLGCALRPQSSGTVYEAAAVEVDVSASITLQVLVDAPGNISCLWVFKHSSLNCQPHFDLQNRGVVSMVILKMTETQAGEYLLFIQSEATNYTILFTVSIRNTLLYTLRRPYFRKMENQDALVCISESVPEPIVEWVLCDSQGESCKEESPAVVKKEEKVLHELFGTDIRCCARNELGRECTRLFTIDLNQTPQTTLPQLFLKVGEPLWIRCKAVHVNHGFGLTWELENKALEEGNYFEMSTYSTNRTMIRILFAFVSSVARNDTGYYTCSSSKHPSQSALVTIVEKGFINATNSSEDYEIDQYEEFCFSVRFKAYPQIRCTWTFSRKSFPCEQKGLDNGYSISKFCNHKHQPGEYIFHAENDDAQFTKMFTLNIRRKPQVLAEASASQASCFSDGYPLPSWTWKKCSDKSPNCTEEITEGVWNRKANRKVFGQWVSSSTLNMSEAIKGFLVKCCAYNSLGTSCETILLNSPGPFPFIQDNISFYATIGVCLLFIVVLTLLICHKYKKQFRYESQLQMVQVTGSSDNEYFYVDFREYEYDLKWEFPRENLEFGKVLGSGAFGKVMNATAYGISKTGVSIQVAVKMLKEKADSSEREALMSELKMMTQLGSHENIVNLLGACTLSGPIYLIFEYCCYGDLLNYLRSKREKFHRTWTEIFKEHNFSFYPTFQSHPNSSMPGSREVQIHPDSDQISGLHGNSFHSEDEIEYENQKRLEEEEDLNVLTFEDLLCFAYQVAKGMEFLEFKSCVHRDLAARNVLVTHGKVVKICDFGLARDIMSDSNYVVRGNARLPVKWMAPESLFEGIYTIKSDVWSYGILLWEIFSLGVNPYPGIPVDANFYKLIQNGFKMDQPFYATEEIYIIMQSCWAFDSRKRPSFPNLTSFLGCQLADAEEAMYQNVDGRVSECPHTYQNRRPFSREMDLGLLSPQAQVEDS

[5] = target: Platelet-derived growth factor receptor beta (Homo sapiens, UniProt P09619); assay: Inhibition of human PDGFR beta
[6] = target: Epidermal growth factor receptor (Homo sapiens, UniProt P00533); assay: Inhibition of EGFR in human A431 cells incubated for 2 hrs followed by EGF stimulation and measured after 10 mins by immunoblot assay; type: cell-based
[7] = target: Proto-oncogene tyrosine-protein kinase Src (Mus musculus, UniProt P05480); assay: Inhibition of SRC in transformed mouse NIH3T3 cells by SDS-PAGE based immunoblot assay; type: cell-based
[8] = target: Insulin-like growth factor 1 receptor (Homo sapiens, UniProt P08069); assay: Inhibition of IGFR1 (unknown origin) using poly (Glu,Tyr) 4:1 as substrate
[9] = Inhibition of VEGFR (unknown origin); set-up: species or system Homo sapiens
HCT-15 = assay: Antiproliferative activity against human HCT15 cells; type: functional, cell-based
SK-OV-3 = assay: Antiproliferative activity against human SKOV3 cells; type: functional, cell-based
BE = assay: Antiangiogenic activity in human BE cells after 24 hrs by MTT assay; type: functional, cell-based
U-87 MG = assay: Antiangiogenic activity in human U87cells after 24 hrs by MTT assay; type: functional, cell-based, U-87MG ATCC
HUVEC = assay: Antiangiogenic activity in HUVEC after 24 hrs by MTT assay; type: functional, cell-based; conditions: Homo sapiens
MCF7 = assay: Cytotoxicity against human MCF7 cells after 48 hrs by MTT assay; type: functional, cell-based; conditions: MCF7, 48 h
[10] = Half life in rat plasma; type: ADME, cell-free
[11] = Half life in guinea pig plasma; type: ADME, cell-free, Cavia porcellus
[12] = Half life in mouse plasma; type: ADME, cell-free
K562 [13] = assay: Cytotoxicity against human K562 cells after 72 hrs in presence of 3% O2 by MTT assay; type: functional, cell-based; conditions: K562, 72 h
SMMC-7721 [14] = assay: Cytotoxicity against human SMMC7721 cells after 72 hrs in presence of 3% O2 by MTT assay; type: functional, cell-based; conditions: SMMC-7721, 72 h
ECa-109 cell line [15] = assay: Cytotoxicity against human ECA109 cells after 72 hrs in presence of 3% O2 by MTT assay; type: functional, cell-based; conditions: ECa-109, 72 h
SGC-7901 [16] = assay: Cytotoxicity against human SGC7901 cells after 72 hrs in presence of 3% O2 by MTT assay; type: functional, cell-based; conditions: SGC-7901, 72 h
PC-3 [17] = assay: Cytotoxicity against human PC3 cells after 72 hrs in presence of 3% O2 by MTT assay; type: functional, cell-based; conditions: PC-3, 72 h
K562 [18] = assay: Cytotoxicity against human K562 cells after 72 hrs in presence of 20% O2 by MTT assay; type: functional, cell-based; conditions: K562, 72 h
SMMC-7721 [19] = assay: Cytotoxicity against human SMMC7721 cells after 72 hrs in presence of 20% O2 by MTT assay; type: functional, cell-based; conditions: SMMC-7721, 72 h
ECa-109 cell line [20] = assay: Cytotoxicity against human ECA109 cells after 72 hrs in presence of 20% O2 by MTT assay; type: functional, cell-based; conditions: ECa-109, 72 h
SGC-7901 [21] = assay: Cytotoxicity against human SGC7901 cells after 72 hrs in presence of 20% O2 by MTT assay; type: functional, cell-based; conditions: SGC-7901, 72 h
PC-3 [22] = assay: Cytotoxicity against human PC3 cells after 72 hrs in presence of 20% O2 by MTT assay; type: functional, cell-based; conditions: PC-3, 72 h
[23] = Acute toxicity in po dosed Wistar rat measured up to 14 days; type: organism-based; conditions: in vivo
[24] = target: Cyclin-dependent kinase 5/CDK5 activator 1 (Homo sapiens, UniProt Q00535); assay: Inhibition of CDK5/p25 (unknown origin) expressed in Escherichia coli using histone as substrate in presence of [gamma32P]ATP after 10 mins by scintillation counting method
[25] = Inhibition of Marthasterias glacialis oocyte CDK1/cyclin B using histone as substrate in presence of [gamma32P]ATP after 10 mins by scintillation counting method

Epidermal growth factor receptor, sequence (P00533 whole entry): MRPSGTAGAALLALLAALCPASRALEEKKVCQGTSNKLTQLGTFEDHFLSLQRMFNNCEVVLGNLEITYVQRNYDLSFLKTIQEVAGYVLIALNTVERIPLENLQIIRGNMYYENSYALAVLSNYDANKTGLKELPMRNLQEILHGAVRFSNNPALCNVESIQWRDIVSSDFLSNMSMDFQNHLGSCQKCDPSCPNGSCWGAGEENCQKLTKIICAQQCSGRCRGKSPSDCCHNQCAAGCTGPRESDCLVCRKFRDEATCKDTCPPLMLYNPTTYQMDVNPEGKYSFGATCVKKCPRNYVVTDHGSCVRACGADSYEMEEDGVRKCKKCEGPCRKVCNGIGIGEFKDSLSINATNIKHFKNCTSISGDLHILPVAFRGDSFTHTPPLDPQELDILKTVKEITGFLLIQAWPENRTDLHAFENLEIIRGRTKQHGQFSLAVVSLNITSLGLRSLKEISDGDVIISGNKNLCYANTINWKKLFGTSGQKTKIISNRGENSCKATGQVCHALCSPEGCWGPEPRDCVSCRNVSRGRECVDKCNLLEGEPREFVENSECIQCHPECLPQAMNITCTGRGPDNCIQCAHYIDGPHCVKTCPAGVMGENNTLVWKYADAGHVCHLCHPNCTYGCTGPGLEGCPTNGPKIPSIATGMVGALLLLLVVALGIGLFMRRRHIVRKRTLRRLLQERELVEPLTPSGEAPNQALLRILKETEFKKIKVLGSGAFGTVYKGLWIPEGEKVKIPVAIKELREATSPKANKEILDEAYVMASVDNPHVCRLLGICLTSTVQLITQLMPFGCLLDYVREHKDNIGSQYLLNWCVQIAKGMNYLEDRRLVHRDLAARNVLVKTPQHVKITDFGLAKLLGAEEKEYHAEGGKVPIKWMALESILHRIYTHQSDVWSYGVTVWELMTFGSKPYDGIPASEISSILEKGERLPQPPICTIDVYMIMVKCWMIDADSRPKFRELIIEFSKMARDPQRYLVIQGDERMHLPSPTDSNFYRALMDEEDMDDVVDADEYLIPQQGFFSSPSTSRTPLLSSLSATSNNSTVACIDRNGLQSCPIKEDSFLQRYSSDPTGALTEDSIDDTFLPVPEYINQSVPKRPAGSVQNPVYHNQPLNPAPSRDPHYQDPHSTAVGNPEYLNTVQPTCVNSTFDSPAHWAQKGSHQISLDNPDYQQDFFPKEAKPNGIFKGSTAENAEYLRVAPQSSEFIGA
Insulin-like growth factor 1 receptor, sequence (P08069 31-736 limits assumed): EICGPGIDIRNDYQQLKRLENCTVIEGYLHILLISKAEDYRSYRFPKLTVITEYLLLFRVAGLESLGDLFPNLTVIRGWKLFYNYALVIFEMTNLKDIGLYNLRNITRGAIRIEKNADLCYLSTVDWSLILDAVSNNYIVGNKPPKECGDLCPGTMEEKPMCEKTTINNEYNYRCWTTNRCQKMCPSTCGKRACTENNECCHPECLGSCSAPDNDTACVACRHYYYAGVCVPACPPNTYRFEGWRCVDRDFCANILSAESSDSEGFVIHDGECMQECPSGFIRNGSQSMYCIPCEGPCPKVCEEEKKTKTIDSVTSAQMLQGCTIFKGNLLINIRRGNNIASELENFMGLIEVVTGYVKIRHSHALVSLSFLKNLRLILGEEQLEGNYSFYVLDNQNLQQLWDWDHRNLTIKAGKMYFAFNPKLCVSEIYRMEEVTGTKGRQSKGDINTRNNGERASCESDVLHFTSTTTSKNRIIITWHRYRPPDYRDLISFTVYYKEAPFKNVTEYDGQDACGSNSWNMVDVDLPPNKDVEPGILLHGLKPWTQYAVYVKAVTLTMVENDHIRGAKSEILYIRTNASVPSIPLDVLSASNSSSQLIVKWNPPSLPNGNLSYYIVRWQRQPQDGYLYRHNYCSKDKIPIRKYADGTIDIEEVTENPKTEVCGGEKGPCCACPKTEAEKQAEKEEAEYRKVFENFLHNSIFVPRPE
Insulin-like growth factor 1 receptor, sequence (P08069 741-1367 limits assumed): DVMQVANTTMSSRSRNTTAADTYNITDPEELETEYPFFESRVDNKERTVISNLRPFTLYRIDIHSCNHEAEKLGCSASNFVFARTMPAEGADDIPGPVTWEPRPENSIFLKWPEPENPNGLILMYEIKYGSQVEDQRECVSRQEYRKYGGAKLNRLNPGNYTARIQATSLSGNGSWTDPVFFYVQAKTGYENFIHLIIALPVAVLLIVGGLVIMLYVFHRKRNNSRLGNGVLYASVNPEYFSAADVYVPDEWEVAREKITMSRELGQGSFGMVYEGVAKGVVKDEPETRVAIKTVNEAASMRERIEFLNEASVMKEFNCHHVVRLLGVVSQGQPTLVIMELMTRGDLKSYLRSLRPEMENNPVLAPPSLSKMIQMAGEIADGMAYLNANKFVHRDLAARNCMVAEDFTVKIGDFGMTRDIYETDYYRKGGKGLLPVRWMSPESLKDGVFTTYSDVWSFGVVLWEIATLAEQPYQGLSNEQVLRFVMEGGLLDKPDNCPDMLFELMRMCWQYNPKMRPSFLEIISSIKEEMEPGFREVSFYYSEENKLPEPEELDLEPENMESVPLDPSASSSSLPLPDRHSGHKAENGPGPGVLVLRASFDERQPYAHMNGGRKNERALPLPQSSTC
Platelet-derived growth factor receptor beta, sequence (P09619 whole entry): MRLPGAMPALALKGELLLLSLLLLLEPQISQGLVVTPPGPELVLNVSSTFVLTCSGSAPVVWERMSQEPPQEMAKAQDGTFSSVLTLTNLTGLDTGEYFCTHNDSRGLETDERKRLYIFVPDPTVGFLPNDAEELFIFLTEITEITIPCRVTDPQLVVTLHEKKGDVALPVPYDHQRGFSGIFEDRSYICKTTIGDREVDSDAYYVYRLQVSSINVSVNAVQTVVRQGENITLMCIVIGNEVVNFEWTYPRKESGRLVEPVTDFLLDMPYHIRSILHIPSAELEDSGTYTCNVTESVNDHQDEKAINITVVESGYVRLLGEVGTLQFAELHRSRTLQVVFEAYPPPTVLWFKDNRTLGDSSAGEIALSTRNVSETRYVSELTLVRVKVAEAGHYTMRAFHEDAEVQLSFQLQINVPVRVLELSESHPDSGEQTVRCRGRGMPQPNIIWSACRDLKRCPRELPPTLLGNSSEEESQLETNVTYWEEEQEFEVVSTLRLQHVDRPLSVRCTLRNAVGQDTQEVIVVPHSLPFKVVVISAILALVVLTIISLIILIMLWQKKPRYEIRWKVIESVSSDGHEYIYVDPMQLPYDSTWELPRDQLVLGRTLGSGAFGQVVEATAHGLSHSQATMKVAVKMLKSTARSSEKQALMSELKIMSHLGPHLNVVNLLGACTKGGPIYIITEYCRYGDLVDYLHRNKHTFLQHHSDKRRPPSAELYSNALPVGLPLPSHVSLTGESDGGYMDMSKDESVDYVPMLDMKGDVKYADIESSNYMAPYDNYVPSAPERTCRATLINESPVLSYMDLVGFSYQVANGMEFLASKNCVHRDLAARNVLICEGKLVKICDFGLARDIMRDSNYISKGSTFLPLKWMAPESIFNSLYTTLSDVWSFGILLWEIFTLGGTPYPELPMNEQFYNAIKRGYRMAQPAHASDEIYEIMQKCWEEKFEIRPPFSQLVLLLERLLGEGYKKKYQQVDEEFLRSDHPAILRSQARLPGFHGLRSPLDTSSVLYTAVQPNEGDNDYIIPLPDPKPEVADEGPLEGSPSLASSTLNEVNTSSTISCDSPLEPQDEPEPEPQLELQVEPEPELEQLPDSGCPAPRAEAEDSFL
Mast/stem cell growth factor receptor Kit, sequence (P10721 whole entry): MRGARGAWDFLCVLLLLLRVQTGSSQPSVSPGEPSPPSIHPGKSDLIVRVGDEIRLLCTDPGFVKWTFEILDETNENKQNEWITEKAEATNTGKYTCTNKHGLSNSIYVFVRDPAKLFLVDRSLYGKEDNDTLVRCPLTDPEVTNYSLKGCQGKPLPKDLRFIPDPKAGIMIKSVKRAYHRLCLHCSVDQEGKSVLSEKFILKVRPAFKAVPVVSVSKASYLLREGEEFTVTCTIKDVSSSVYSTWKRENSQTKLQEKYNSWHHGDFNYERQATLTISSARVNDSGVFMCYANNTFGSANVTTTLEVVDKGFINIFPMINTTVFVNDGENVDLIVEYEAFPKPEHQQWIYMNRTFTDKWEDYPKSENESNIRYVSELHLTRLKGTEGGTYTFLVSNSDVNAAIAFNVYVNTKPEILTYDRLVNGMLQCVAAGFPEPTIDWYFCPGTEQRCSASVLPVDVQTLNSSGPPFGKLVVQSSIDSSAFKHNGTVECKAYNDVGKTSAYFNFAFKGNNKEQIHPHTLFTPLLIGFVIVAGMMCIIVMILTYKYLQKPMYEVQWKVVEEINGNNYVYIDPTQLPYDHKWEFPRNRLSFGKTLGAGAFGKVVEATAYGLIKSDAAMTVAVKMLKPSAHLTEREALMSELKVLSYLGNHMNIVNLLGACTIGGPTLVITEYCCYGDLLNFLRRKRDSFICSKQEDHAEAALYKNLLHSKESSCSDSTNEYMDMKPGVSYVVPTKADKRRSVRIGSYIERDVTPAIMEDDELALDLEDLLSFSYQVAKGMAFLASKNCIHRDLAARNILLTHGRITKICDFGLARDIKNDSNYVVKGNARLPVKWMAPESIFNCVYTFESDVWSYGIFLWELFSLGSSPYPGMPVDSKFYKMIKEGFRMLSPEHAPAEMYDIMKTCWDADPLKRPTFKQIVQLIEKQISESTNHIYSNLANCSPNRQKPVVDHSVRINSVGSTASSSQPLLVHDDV

SMILES: Cc1nc2cc3nc(-c4cccs4)cnc3cc2n1C
IC50 [2]: 0.8 µM
IC50 [3]: 1 to 3 µM
IC50 [4]: 1 to 3 µM
IC50 [5]: 0.09 µM
IC50 [6]: > 30 µM
IC50 [7]: > 30 µM
IC50 [8]: > 30 µM
IC50 [9]: > 30 µM

SMILES: CCCCCNCc1ccc2c(c1)C(=O)c1nccnc1C2=O
IC50 (HCT-15): 0.05 µM
IC50 (SK-OV-3): 0.4 µM

SMILES: C[n+]1c2ccccc2nc2c1c1cc(F)ccc1n2CCCC[N+]1(C)CCCCC1
IC50 (MCF7): 1.94 µM

SMILES: C[n+]1c2ccccc2nc2c1c1cc(F)ccc1n2CCCC[N+]1(C)CCCC1
IC50 (MCF7): 1.8 µM

SMILES: C[n+]1c2ccccc2nc2c1c1cc(F)ccc1n2CCCCCC[N+]1(C)CCCCC1
IC50 (MCF7): 1.6 µM

SMILES: CCS(=O)(=O)c1c(-c2ccc(Br)cc2)[n+]([O-])c2cc(C)ccc2[n+]1[O-]
IC50 (K562 [13]): 0.18 µM
IC50 (SMMC-7721 [14]): 3.17 µM
IC50 (ECa-109 cell line [15]): 6.38 µM
IC50 (SGC-7901 [16]): 8.88 µM
IC50 (PC-3 [17]): 4.98 µM
IC50 (K562 [18]): < 10 µM
IC50 (SMMC-7721 [19]): < 10 µM
IC50 (ECa-109 cell line [20]): < 10 µM
IC50 (SGC-7901 [21]): < 10 µM
IC50 (PC-3 [22]): < 10 µM

SMILES: CC(=O)c1c(C)[n+]([O-])c2ccccc2[n+]1[O-] [MEQUINDOX]
LD50 at 336 h [23]: 550 mg/kg

SMILES: Nc1n[nH]c2nc3ccccc3nc12 [QUINOXALINE1]
IC50 [24]: 0.4 µM
IC50 [25]: 0.6 µM

Continued, in another order:

IC50 [1]: 0.04 µM
SMILES: O=S(=O)(c1ccccc1)c1nc2ccccc2nc1N1CCOCC1

IC50 [1]: 0.04 µM
SMILES: O=S(=O)(c1ccc(Br)cc1)c1nc2ccccc2nc1N1CCC(O)CC1

IC50 (U-87 MG): > 50 µM
SMILES: Cc1cc2ncc(-c3ccc(O)c(O)c3)nc2cc1C
IC50 (BE): > 50 µM
IC50 (HUVEC): 24.7 µM

IC50 (U-87 MG): 15.9 µM
SMILES: Cc1cc2ncc(-c3ccc(OCc4ccccc4)c(O)c3)nc2cc1C
IC50 (BE): 41 µM
IC50 (HUVEC): > 100 µM

IC50 (U-87 MG): 42.3 µM
SMILES: CC(=O)Oc1ccc(-c2cnc3cc(C)c(C)cc3n2)cc1O
IC50 (BE): > 50 µM
IC50 (HUVEC): 54.4 µM

IC50 [1]: 0.04 µM
SMILES: NC(=O)C1CCN(c2nc3ccccc3nc2S(=O)(=O)c2ccc(Br)cc2)CC1

IC50 (U-87 MG): > 50 µM
SMILES: COc1ccc(-c2cnc3cc(C)c(C)cc3n2)cc1O
IC50 (BE): > 50 µM
IC50 (HUVEC): > 100 µM

half-life [10]: 16.7 min
half-life [11]: 4.02 min
half-life [12]: 61 min
SMILES: CC(C)OC(=O)N1CCN(c2ncc(-c3ccc4nccnc4c3)cc2C#N)CC1

IC50 [1]: 0.04 µM
SMILES: O=C(c1ccccc1)N1CCN(c2nc3ccccc3nc2S(=O)(=O)c2ccccc2)CC1
